Consider eleven molecules from patent US12435083B2, “Cyclopropyl-(hetero)aryl-substituted ethylsulphonyl-pyridine derivatives” (BOEHRINGER INGELHEIM VETMEDICA GMBH, priority 2021, dated 2025).

One test relates to Aedes aegypti L1 larvae. The test can be described thus: Activity against larvae of Aedes aegypti (L1 larvae, 384-well, image-based mortality). The note with it: 48 h at 27° C., 384-well, read-out: EC50 (percentage of mortality, A. aegypti L1 larvae). As for the experimental part: Example 3: Screening Method to Test Activity of Compounds of Formula (I) Against Larvae of Aedes aegypti
Eight A. aegypti L1 larvae in a total volume of 64 μL water were added to 384-well microplates containing compounds formulated in 100% DMSO. The plates were incubated for 48 h at 27° C. Individual well images were acquired and analyzed using a pipeline to quantitatively assess the amount of larvae biomass accumulating at the bottom of the well. The efficacy of a compound at a given dose is expressed as “percentage of mortality” and determined by comparison to average biomass descriptors of positive and negative control wells containing 1.0 μM Fipronil or DMSO only, respectively. Dose response assay were conducted to determine an EC50 value.

Test [1] has as its system adult Rhipicephalus sanguineus ticks. The test can be described thus: Contact activity against adult Rhipicephalus sanguineus (coated vial, mortality at 48 h). The note with it: Rhipicephalus sanguineus; 48 hours post-treatment, coated vial; read-out: EC50 (percentage mortality, adult R. sanguineus, contact). As for the experimental part:
Example 5: Screening Method to Test Contact Activity of Compounds of Formula (I) Against Adult Rhipicephalus sanguineus
Compounds of formula (I) formulated in 100% DMSO were diluted in a solution containing acetone and Triton X-100 (0.02%). The resulting formulation was used to coat the inner walls of glass scintillation vials and the filter paper covering the cap of the vial. Once dried, ten adult R. sanguineus ticks were added to the vials. The vials were incubated at 24° C., 95% relative humidity, and 12 hours of light/12 hours of dark until evaluation. Ticks were visually evaluated for mortality at 48 hours post-treatment. Compound efficacy at a given dose is expressed as percentage mortality. A dose response series was implemented to determine EC50 values.
(§1) The four structurally closest prior art compounds (A), (B), (C) and (D) specifically excluded from the scope of formula (I) were characterized vis-a-vis selected compounds of formula (I) with regard to their potency in in vitro screening assays against fleas (Ctenocehalides felis) and ticks (Rhipicephalus sanguineus).
(§2) However, as explained above, spectrum of action against this range of species (i.e. fleas and ticks) is a desirable property of ectoparasiticides for veterinary use. In the following table 1 comparative experimental data of the in vitro assays are shown regarding flea membrane feeding (ingestion, blood feeding) activity against Ctenocephalides felis and contact activity against Rhipicephalus sanguineus.

Test [2] deals with adult Ctenocephalides felis fleas. The test can be described thus: Contact activity against adult Ctenocephalides felis (treated surface, motility by machine vision, 24 h). The note with it: treated surface, 24h, read-out: EC80 (% motility reduction, adult C. felis, contact). The text has this: Example 7: Screening Method to Test Contact Activity of Compounds of Formula (I) Against Adult Ctenocephalides felis

Another test deals with Plutella xylostella. Briefly: Insecticidal test on Plutella xylostella (Chinese cabbage seedling dip). The note with it: 144 h, 500 ppm, seedling dip, 6 days after dip treatment, read-out: activity level (corrected mortality rate), Plutella xylostella. As for the experimental part: Example 12: Insecticidal Test on Plutella xylostella
(§3) The compounds of formula (I) of the present invention or salts thereof were separately dispersed in water and diluted to 500 ppm. Ten adults of Plutella xylostella were released onto Chinese cabbage seedlings and allowed to lay eggs thereon. 2 days after the release of the adults, the seedling was dipped in the dispersion for about 30 seconds. After air dried, the seedling was kept in a room at 25° C. 6 days after the dip treatment, the numbers of the dead and alive insects were counted. The corrected mortality rate was calculated according to the following formula and the insecticidal activity was evaluated according to the following criteria. Corrected mortality rate (%)=100×(Survival rate in an untreated plot−Survival rate in a treated plot)/Survival rate in an untreated plot • A: the corrected mortality rate is 100% • B: the corrected mortality rate is 90 to 99% • C: the corrected mortality rate is 80 to 89% • D: the corrected mortality rate is 50 to 79%

Test [3] concerns Laodelphax striatellus 3rd-instar nymphs. The test can be described thus: Insecticidal test on Laodelphax striatellus (rice seedling dip). The note with it: 192 h, 500 ppm, seedling dip, 8 days after inoculation, read-out: activity level (corrected mortality rate), Laodelphax striatellus. As for the experimental part:
Example 13: Insecticidal Test on Laodelphax striatellus
as §3, with “Rice plant seedlings” for “Ten adults of Plutella xylostella”, “were” for “were released onto Chinese cabbage seedlings and allowed to lay eggs thereon. 2 days after the release of the adults, the seedling was”, “seedlings were put into a separate glass test tube and inoculated with ten 3rd-instar nymphs of Laodelphax striatellus and then the glass test tube” for “seedling”, “8” for “6”, “inoculation,” for “dip treatment,”

The subject of a further test is Myzus persicae. Briefly: Insecticidal test on Myzus persicae (foliar application on potted Chinese cabbage). The note with it: 144 h, 500 ppm, foliar application, 6 days after application, read-out: control efficacy level (control rate), Myzus persicae. The text has this: Example 14: Insecticidal Test on Myzus persicae
The compounds of formula (I) of the present invention or salts thereof were separately dispersed in water and diluted to 500 ppm. Chinese cabbage plants were planted in plastic pots (diameter: 8 cm, height: 8 cm). Aphids (Myzus persicae) were propagated on the plants and then the number of surviving aphids was counted. The dispersion was applied to the foliage of the potted plants. After the plants were air dried, these were kept in a greenhouse. 6 days after the application, the number of the alive insects was counted on the plants. The control rate was calculated according to the following formula and the control efficacy was evaluated according to the following criteria. Control rate (%)=100−{(T×Ca)/(Ta×C)}×100 • Ta: the number of alive insects before the foliar application in a treated plot • T: the number of alive insects after the foliar application in a treated plot • Ca: the number of alive insects before the foliar application in an untreated plot • C: the number of alive insects after the foliar application in an untreated plot • A: the control rate is 100% • B: the control rate is 90 to 99% • C: the control rate is 80 to 89% • D: the control rate is 50 to 79%

For test [4], the system named is adult Ctenocephalides felis fleas. The test can be described thus: Ingestion activity (flea membrane feeding, blood feeding) against adult Ctenocephalides felis. The note with it: Ctenocephalides felis; bovine blood, 24h post treatment; read-out: EC80 (% motility reduction, adult C. felis, ingestion via membrane feeding).
Description: Example 6: Screening Method to Test Ingestion Activity of Compounds of Formula (I) Against Adult Ctenocephalides felis
as §1
It is important to note that compounds that show better activity versus ticks are more desirable in the animal health field, as ticks are more difficult to control than fleas. Noteworthy, in particular with regard to fleas the illustrated comparative data are based on a flea membrane feeding (ingestion, blood feeding) assay. Data from this assay are more relevant for compounds intended to be delivered systemically to an animal via oral or injectable routes. Membrane feeding assays differ to primary screening laboratory contact assays in that the latter only measure the effect of the direct contact of selected compounds on the parasite, such as the flea or the tick. The information derived from laboratory contact assays is strictly limited to the ability of the compound to be absorbed through the parasite surface and to reach its molecular target, and no information can be gleaned from these contact assays as to whether the compound would also be active when presented orally to the ectoparasite itself in a blood meal, such as with the membrane feeding assay, and certainly not when administered orally to an animal host (e.g. “in vivo”) with subsequent exposure to the ectoparasite.
as §2

For test [5], the system named is Spodoptera litura 2nd-instar larvae. Briefly: Insecticidal test on Spodoptera litura (cabbage leaf dip). The note with it: foliar, 192 h, 8 days after inoculation, read-out: activity level (corrected mortality rate), Spodoptera litura. As for the experimental part:
Example 11: Insecticidal Test on Spodoptera litura
as §3, with “Cabbage leaves” for “Ten adults of Plutella xylostella”, “were” for “were released onto Chinese cabbage seedlings and allowed to lay eggs thereon. 2 days after the release of the adults, the seedling was”, “leaves were placed in a plastic Petri dish with a diameter of 9 cm and inoculated with ten 2nd-instar larvae of Spodoptera litura, after which the dish” for “seedling”, “closed and then allowed to stand” for “kept”, “8” for “6”, “inoculation,” for “dip treatment,”

A value given as a limit tells only on which side of the number the result lay.

As usually defined, the EC50 is the midpoint of the concentration-response curve. By EC80 is commonly meant the point of the concentration-response curve where the effect stands at 80%. A word on the mortality: it is the percentage killed.

As for `CCS(=O)(=O)c1cc(-c2cncc(C3CC3)c2)cnc1-c1nc2cc(C(F)(F)C(F)(F)F)nnc2n1C` [Compound 61, 5′-cyclopropyl-5-(ethanesulfonyl)-6-[7-methyl-3-(1,1,2,2,2-pentafluoroethyl)imidazo[4,5-c]pyridazin-6-yl]-3,3′-bipyridine], the concentration giving a half-maximal response (EC50) with Aedes aegypti L1 larvae was in the range of 40 to 50 nM; in test [1], 10000 to 100000 nM.

Take `CCS(=O)(=O)c1cc(-c2ccnc(C3CC3)c2)cnc1-c1nc2cc(C(F)(F)C(F)(F)F)nnc2n1C` [Compound 60, 2′-cyclopropyl-5-(ethanesulfonyl)-6-[7-methyl-3-(1,1,2,2,2-pentafluoroethyl)imidazo[4,5-c]pyridazin-6-yl]-3,4′-bipyridine]: the EC50 in the test on Aedes aegypti L1 larvae was less than 40 nM; in test [1] it was 10000 to 100000 nM. Also, the EC80 in test [2] lay in the range of 1000 to 10000 nM. In addition, the mortality at 500 ppm (with Plutella xylostella; in test [3]) was 100% each time.

As for `CCS(=O)(=O)c1cc(-c2ccc(C3CC3)cc2)cnc1-c1ccc(OCC(F)(F)C(F)(F)F)cn1` [Compound 52, 5-(4-cyclopropylphenyl)-3-(ethanesulfonyl)-5′-(2,2,3,3,3-pentafluoropropoxy)-2,2′-bipyridine], the figures for the EC50 (in the test with Aedes aegypti L1 larvae; in test [1]) were less than 40 nM and less than 10000 nM, respectively. Moreover, the mortality at 500 ppm (in the test with Plutella xylostella; in test [3]) was 100% throughout. For the same molecule, the pest or weed control at 500 ppm with Myzus persicae worked out at 100%.

`CCS(=O)(=O)c1cc(-c2ccc(C3CC3)cc2)cnc1-n1cc2cnc(S(=O)(=O)C(F)(F)F)cc2n1` [Compound 30, 5-(4-cyclopropylphenyl)-3-(ethanesulfonyl)-2-[6-trifluoromethanesulfonylpyrazolo[4,3-c]pyridin-2-yl]pyridine]: the EC50 with Aedes aegypti L1 larvae was less than 40 nM. For the same molecule, the EC80 in test [2] lay within 1000 to 10000 nM.

Take `CCS(=O)(=O)c1cc(-c2ccc(C3CC3)cc2)cnc1-n1nc2cc(SC(F)(F)F)ncc2c1Cl` [Compound 27, 2-[3-chloro-6-[(trifluoromethyl)sulfanyl]pyrazolo[4,3-c]pyridin-2-yl]-5-(4-cyclopropylphenyl)-3-(ethanesulfonyl)pyridine]: the EC50 is less than 40 nM in the test with Aedes aegypti L1 larvae and less than 10000 nM in test [1]. The EC80 in test [2] lay in the range of 1000 to 10000 nM.

Take `CCS(=O)(=O)c1cc(-c2ccc(C3CC3)cc2)cnc1-c1nc2cc(S(=O)(=O)C(F)(F)F)cnc2n1C` [Compound 82, 5-(4-cyclopropylphenyl)-3-(ethanesulfonyl)-2-[3-methyl-6-trifluoromethanesulfonylimidazo[4,5-b]pyridin-2-yl]pyridine]: the concentration giving a half-maximal response (EC50) in the test on Aedes aegypti L1 larvae was less than 40 nM. For the same molecule, the EC80 in test [2] was in the range of 1000 to 10000 nM. Besides, the mortality at 500 ppm (in the test with Plutella xylostella; in test [3]) was 100% in each case.

Consider `CCS(=O)(=O)c1cc(-c2cccc(C3(C(F)(F)F)CC3)n2)cnc1-c1cc2n(CC(F)F)cc(C(F)(F)F)cc-2n1` [Compound 171, 6′-[4-(2,2-difluoroethyl)-6-(trifluoromethyl)pyrrolo[3,2-b]pyridin-2-yl]-5′-(ethanesulfonyl)-6-[I-(trifluoromethyl)cyclopropyl]-2,3′-bipyridine], for which the concentration for an effect of 80% (EC80) in test [4] and in test [2] was 1000 to 10000 nM each time. Further, the mortality at 500 ppm (in test [5]; in the test with Plutella xylostella) was 100% throughout.

Consider `CCS(=O)(=O)c1cc(-c2ccc(C3CC3)cc2)cnc1-c1cc2n(CC(F)(F)F)cc(C(F)(F)F)cc-2n1` [Compound 107, 5-(4-cyclopropylphenyl)-3-(ethanesulfonyl)-2-[4-(2,2,2-trifluoroethyl)-6-(trifluoromethyl)pyrrolo[3,2-b]pyridin-2-yl]pyridine], for which the EC80 in test [4] and in test [2] was 1000 to 10000 nM each time. Also, in test [5], the mortality at 500 ppm is 100%.

For the molecule `CCS(=O)(=O)c1cc(-c2ccc(C3CC3)cc2)cnc1-n1cc2cnc([S+]([O-])C(F)(F)F)cc2n1` (stereo not drawn) [Compound 29, 5-(4-cyclopropylphenyl)-3-(ethanesulfonyl)-2-[6-trifluoromethanesulfinylpyrazolo[4,3-c]pyridin-2-yl]pyridine], in the test with Aedes aegypti L1 larvae, the concentration for a half-maximal effect (EC50) was less than 40 nM. In addition, the EC80 in test [2] fell in the range of 1000 to 10000 nM.

For the molecule `CCS(=O)(=O)c1cc(-c2ccc(C3(C(F)(F)F)CC3)cc2)cnc1-c1nc2cc(C(F)(F)C(F)(F)F)ncc2n1C` [compound 116], the EC50 in the test with Aedes aegypti L1 larvae is less than 40 nM.

For the molecule `CCS(=O)(=O)c1cc(-c2ccc(C3CC3)cc2)cnc1-c1nc2cc(SC(F)(F)F)cnc2n1C` [Compound 83, 5-(4-cyclopropylphenyl)-3-(ethanesulfonyl)-2-[3-methyl-6-[(trifluoromethyl)sulfanyl]imidazo[4,5-b]pyridin-2-yl]pyridine], the EC50 in the test on Aedes aegypti L1 larvae is less than 40 nM. In addition, the EC80 in test [2] is 1000 to 10000 nM. Further, the mortality at 500 ppm (with Plutella xylostella; in test [3]) was 100% in each case. For the same molecule, in the test on Myzus persicae, the pest or weed control at 500 ppm is 100%.
